Measured values: patent US20230075368A1, “IDENTIFICATION OF AN EGFR-BIN3 PATHWAY THAT ACTIVELY SUPPRESSES INVASION AND REDUCES TUMOR SIZE IN GLIOBLASTOMA” (The United States Govemment as represented by the …, priority 2020, published 2023)

Assays:
betacellulin = assay: ELISA for BTC in supernatants; assay type: cell-based, human; conditions: tofacitinib 1 μM, 72 hours; GBM12 and GBM6
Method: Similar experiments were performed in GBM6 (FIG. 20D). […] Similar experiments were performed in GBM6 (FIG. 20F). […] The Western blot images are representative of three independent biological replicates. Actin served as loading control. Data are represented as mean±SEM from three independent experiments. * P<0.05, **P<0.01, *[…], unpaired two-tailed t-test.

BIN3 promoter = assay: ChIP assay of EGR1 occupancy; assay type: cell-based, human; conditions: EGF, 24 hours; GBM12 and GBM6
Method: Chromatin immunoprecipitation (ChIP) assays were performed using a ChIP assay kit (Upstate Biotechnology, Lake Placid, N.Y., USA). Cells were treated with or without EGF for the indicated time points or transfected with indicated vectors for 48 hours followed by cell fixation, lysis, chromatin shearing, antibody incubation and washing according to the manufacturer's protocol. ChIP grade anti-EGR1 (4153) or anti-Nanog antibody (5232) antibody from Cell Signaling Technology (Danvers, Mass.) was used to selectively precipitate the corresponding protein-DNA complex. RT-PCR was performed using ViiA 7 Real-Time PCR System (Applied Biosystems) to measure the relative amounts of ChIP DNA and results were quantified relative to inputs. The data are expressed as percentage of input. Following are primer sets: BIN3_Forward: 5′-[…]-3′ (SEQ ID NO:1); BIN3_Reverse: 5′-[…]-3′ (SEQ ID NO:2); EMP1_Forward: 5′-[…]-3′ (SEQ ID NO:3); EMP1_Reverse: 5′-[…]-3′ (SEQ ID NO:4).
Referring to FIG. 8A-D, EGF induces EGR1 activity and enrichment on the BIN3 promoter. […] Cells were transiently transfected with EGR1 firefly luciferase reporter vector and Renilla luciferase vector for 48 hours, EGF was added for additional 2 or 24 hours prior to measuring luciferase activity. […] Cells were treated with or without EGF for 24 hours. ChIP assay was performed as described elsewhere herein. IgG was used as negative control. […]

EMP1 = assay: Western blot of EMP1; assay type: cell-based, human; conditions: EGF 50 ng/ml, 24 hours; GBM12 and GBM6
Method: Whole protein extracts from cells or tumor tissues were analyzed by western blot as previously described (Altieri et al. (2015) Surg. Technol. Int 27: 297-302). Mayo PDX cells were serum starved overnight. Following treatment for specific time, cells were harvested and lysed. The human glioblastoma tissues were ground in liquid nitrogen and then were lysed. EGFR (06-847) antibody was from Millipore. DOCK7 was from Proteintech (Rosemont, Ill.). pEGFR (2236), STAT3 (12640), pSTAT3 (9145), cdc42(4376), and RhoA (4695) antibodies were from Cell Signaling Technology (Danvers, Mass.). TGFα antibody was from R&D system. BIN3 (sc-514396) and (3-Actin (sc-47778) were from Santa Cruz Biotechnology (Dallas, Tex.).
Referring to FIG. 23A-P, EGFR induced EMP1 overexpression drives invasion and is mediated by Nanog. Specifically, cells were transiently transfected with empty or EGFRwt or EGFRvIII vector for 48 hours, and subjected to Western blot analysis for EGFR, pEGFR, BIN3 and EMP1 (FIG. 23A). Similar experiments were performed in GBM14 (FIG. 23B). […] Similar experiments were performed in GBM14 (FIG. 23E). Efficiency of EMP1 knockdown and EGFR overexpression was confirmed by Western blot analysis (FIG. 23F and FIG. 23G). […] FIG. 23J and FIG. 23K show EMP1 mRNA levels in EGFR and EGFRvIII overexpressing GBM12 and GBM14, measured by RT-PCR. […]

GBM12 cells = assay: Intravital microscopy of GBM cell motility through cranial window; assay type: in vivo, mice; conditions: 10 ng EGF injected through cranial window 24 hours before imaging
Method: Two-photon laser intravital microscope combined with cranial window surgery was used to observe cellular movement in vivo. Female athymic nude mice were anesthetized with 2.5% isoflourane and secured in a stereotactic frame. The head was shaved and the scalp was cut in a circular manner. The periosteum was scraped and a drill was used to create a circular cranial window over the front and parietal bone. 10 μL of 1×10^6 cells/ml GBM12 stably expressing H2B-GFP were implanted at a depth of 0.5 mm. Following implantation, a 5 mm silicone-based polydimethylsiloxane (PDMS) coverslip was glued to the bone surrounding the cranial window. PDMS (SYLGARD184, Sigma-Aldrich) film was prepared as described by Heo et al. (Heo, et al. (2016) A soft, transparent, freely accessible cranial window for chronic imaging and electrophysiology, Sci Rep 6: 27818). PDMS coverslip allows for easy insertion of Hamilton needle into the brain tissue for EGF delivery. Dental cement was applied on the skull surface, covering the edge of the coverslip. Seven days after surgery and 24 hours prior to imaging procedure, 10 ng EGF or vehicle was injected into the mice brain through cranial window. […]
Referring to FIG. 14A and FIG. 14B, EGF reduces cell migration speed in vivo detected by intravital microscopy. […] The cell velocity of around 200 cells per mouse were evaluated. […]

Row | Compound | upregulation of betacellulin (betacellulin) | EGR1 occupancy of BIN3 promoter (BIN3 promoter) | EMP1 level (EMP1) | movement of glioma cells in live mouse brain (GBM12 cells)
1 | C[C@@H]1CCN(C(=O)CC#N)C[C@@H]1N(C)c1ncnc2[nH]ccc12 [tofacitinib] | not found |  |  | 
2 | EGF: Recombinant human EGF (AF-100) from Peprotech; EGFR ligand |  | occupies the BIN3 promoter | does not affect EMP1 level | almost complete cessation of movement
